Results as given in patent US7713527B2, “Specific avian egg antibodies for disease prevention and improvement of growth performance” (priority 2006, dated 2010).
Read-outs that look alike come from different tables or passages of the source.

Format: in vivo
Details: Mecadox 1.0% in diet, no SDEP
Experimental: Thirty-six 18 day old piglets (6.3±0.2 kg) were allocated to six treatment groups, blocked by weight and given ad libitum access to feed and water (n=6/group)
Each group was administered varying doses of SDEP containing antibodies to ETEC K88 and/or antibiotics for 28 days (Table 1).
Animals were weighed at the end of phase 1 (14 d) and phase 2 (28 d), and average daily gains were calculated.
Thirty six crossbred (GAP Genetics, Winnipeg, MB, Canada) 18-d old pigs with an initial weight of 6.3±0.2 kg were allotted into six treatment groups: (1) control; (2) 0.1% SDEP; (3) 0.1% SDEP+antibiotics; (4) control+antibiotics; (5) 0.4% SDEP; (6) 0.4% SDEP+antibiotics.
Pigs were housed in stainless steel pens equipped with nipple waterers, stainless steel feeders, and plastic-coated expanded metal floors. The pens were located in an environmentally regulated building maintained at 25±2° C. with a 12-h light/dark cycle. Body weight and feed consumption were recorded after every phase and ad libitum access to feed and water was provided during the entire period of the study.
There were three pens per treatment and two pigs per pen. The pigs were fed a standard pig starter diet in phases 1 (Table 3) and 2 (Table 4). The diets were with or without spray-dried egg powder (SDEP) containing E. Coli K-88 antibodies and with or without antibiotics. The diets were fed in two phases. Both phases were fed for 14 days each. Pigs were allotted to treatments based on weaned weights and dam. Feed and water was available always. Pigs and feeders were weighed at the end of each phase to determine weight gains and feed disappearance.

COC(=O)N/N=C/c1c[n+]([O-])c2ccccc2[n+]1[O-] [Mecadox]
Avg. daily gain / ADG (phase 1 (days 0-14)): 240 g | Avg. daily intake / ADFI (phase 1 (days 0-14)): 328 g | Mean feed/gain (phase 1 (days 0-14)): 1.63 | Mean final weight / End Weight (phase 1 (days 0-14)): 9.6 kg | G:F (phase 1): 0.72 | Avg. daily gain / ADG (phase 2 (days 14-28)): 421 g | Avg. daily intake / ADFI (phase 2 (days 14-28)): 532 g | Mean feed/gain (phase 2 (days 14-28)): 1.35 | Mean final weight / End Weight (phase 2 (days 14-28)): 15.4 kg | G:F (phase 2): 0.74
